Experimental findings from ChEMBL document CHEMBL5346887, “Design and evaluation of dibenzoazepine-tetrahydroisoquinoline hybrids as potential P-glycoprotein inhibitors against multidrug resistant K562/A02 cells” (Eur J Med Chem, 2023) are described below.

Data set [1] relates to K562/A02. Put plainly: Reversal fold, ratio of ADR IC50 to test compound IC50 for reversal of multi-drug resistance in human K562/A02 cells. The data set is classed as functional.
Data set [2] has as its system K562/A02. The experiment in a line: Reversal fold, ratio of ADR IC50 to test compound IC50 for reversal of multi-drug resistance in human K562/A02 cells at 0.4 uM. The data set is classed as functional.
The test system of data set [3] is K562/A02. Put plainly: Reversal of adriamycin resistance in human K562/A02 cells incubated for 48 hrs. The data set is classed as functional, cell-based. Conditions: K562/A02, 48 h.
Data set [4] concerns K562/A02. Put plainly: Cytotoxicity against human K562/A02 cells assessed as inhibition of cell growth incubated for 72 hrs by CCK-8 assay. To be noted: K562/A02, 72 h. The data set is classed as functional, cell-based. In general terms: Formazan colour is commonly taken as a measure of viable cells.
Data set [5] relates to K562. The experiment in a line: Reversal of multi-drug resistance in human K562 cells increase in intracellular Rh123 level at 0.5 to 8 uM incubated for 30 mins by flow cytometry analysis. The data set is classed as functional, cell-based. To be noted: dose 0.5-8 µM.
In a further data set the target is Cytochrome P450 3A4 (Homo sapiens, UniProt P08684). Put plainly: Inhibition of CYP3A4 (unknown origin) using luciferin-IPA as substrate preincubated for 1 hr followed by substrate addition and measured after 1 hr by luminometer assay. It is filed as ADME.
The test system of data set [6] is K562/A02. Put plainly: Reversal of multi-drug resistance in human K562/A02 cells increase in intracellular Rh123 level incubated for 30 mins by flow cytometry analysis. It is filed as functional, cell-based. Conditions: dose 0.5-8 µM. For orientation: Flow cytometry measures light scatter and fluorescence of single cells or particles in a stream.
For data set [7], the system named is K562/A02. The experiment in a line: Antitumor activity against human K562/A02 cells xenografted in BALB/c nude mouse assessed as reduction in tumor weight at 20 mg/kg, ip measured upto 14 days in presence of ADR by vernier caliper analysis. The data set is classed as functional, organism-based. To be noted: time <= 14.0 day.
Data set [8] has as its system K562/A02. The experiment in a line: Antitumor activity against human K562/A02 cells xenografted in BALB/c nude mouse assessed as reduction in tumor volume at 20 mg/kg, ip measured upto 14 days in presence of ADR by vernier caliper analysis. It is filed as functional. To be noted: time <= 14 day.
For data set [9], the target named is ATP-dependent translocase ABCB1 (Homo sapiens, UniProt P08183). The experiment in a line: Binding affinity to p-gp in human K562/A02 cells assessed as increase in thermal stabilization at 50 uM incubated for 1 hr by CETSA analysis. It is filed as cell-based. To be noted: k562/a02, 1 h.
Data set [10] concerns K562/A02. Put plainly: Antitumor activity against human K562/A02 cells xenografted in BALB/c nude mouse assessed as reduction in tumor volume at 20 mg/kg, ip measured upto 14 days by vernier caliper analysis. It is filed as functional. To be noted: time <= 14 day.
The test system of data set [11] is K562/A02. The experiment in a line: Effect on P-gp expression in human K562/A02 cells at 0.5 to 8 uM measured after 24 hrs by Western blot analysis. Conditions: dose 0.5-8 µM. It is filed as functional, cell-based.
Data set [12] relates to K562. Put plainly: cells. To be noted: Homo sapiens, K562, 72 h.
Description: Cytotoxicity against human K562 cells assessed as inhibition of cell growth incubated for 72 hrs by CCK-8 assay
Data set [13] deals with K562/A02. Put plainly: Antitumor activity against human K562/A02 cells xenografted in BALB/c nude mouse assessed as reduction in tumor volume at 2 mg/kg, ip measured upto 14 days by vernier caliper analysis. To be noted: time <= 14 day. The data set is classed as functional. (In general: A xenograft is tissue or cells of one species grown in another, often human tumour cells in immunodeficient mice.)

What is called EC50 is the concentration that produces a half-maximal response. By IC50 is commonly meant the concentration at which inhibition is half-maximal.

The structures appear in SMILES notation. Calls of active or inactive are those of the source. The calls are words filed in the database; no cut-off is given here.

Chain of ATP-dependent translocase ABCB1 (P08183 whole entry): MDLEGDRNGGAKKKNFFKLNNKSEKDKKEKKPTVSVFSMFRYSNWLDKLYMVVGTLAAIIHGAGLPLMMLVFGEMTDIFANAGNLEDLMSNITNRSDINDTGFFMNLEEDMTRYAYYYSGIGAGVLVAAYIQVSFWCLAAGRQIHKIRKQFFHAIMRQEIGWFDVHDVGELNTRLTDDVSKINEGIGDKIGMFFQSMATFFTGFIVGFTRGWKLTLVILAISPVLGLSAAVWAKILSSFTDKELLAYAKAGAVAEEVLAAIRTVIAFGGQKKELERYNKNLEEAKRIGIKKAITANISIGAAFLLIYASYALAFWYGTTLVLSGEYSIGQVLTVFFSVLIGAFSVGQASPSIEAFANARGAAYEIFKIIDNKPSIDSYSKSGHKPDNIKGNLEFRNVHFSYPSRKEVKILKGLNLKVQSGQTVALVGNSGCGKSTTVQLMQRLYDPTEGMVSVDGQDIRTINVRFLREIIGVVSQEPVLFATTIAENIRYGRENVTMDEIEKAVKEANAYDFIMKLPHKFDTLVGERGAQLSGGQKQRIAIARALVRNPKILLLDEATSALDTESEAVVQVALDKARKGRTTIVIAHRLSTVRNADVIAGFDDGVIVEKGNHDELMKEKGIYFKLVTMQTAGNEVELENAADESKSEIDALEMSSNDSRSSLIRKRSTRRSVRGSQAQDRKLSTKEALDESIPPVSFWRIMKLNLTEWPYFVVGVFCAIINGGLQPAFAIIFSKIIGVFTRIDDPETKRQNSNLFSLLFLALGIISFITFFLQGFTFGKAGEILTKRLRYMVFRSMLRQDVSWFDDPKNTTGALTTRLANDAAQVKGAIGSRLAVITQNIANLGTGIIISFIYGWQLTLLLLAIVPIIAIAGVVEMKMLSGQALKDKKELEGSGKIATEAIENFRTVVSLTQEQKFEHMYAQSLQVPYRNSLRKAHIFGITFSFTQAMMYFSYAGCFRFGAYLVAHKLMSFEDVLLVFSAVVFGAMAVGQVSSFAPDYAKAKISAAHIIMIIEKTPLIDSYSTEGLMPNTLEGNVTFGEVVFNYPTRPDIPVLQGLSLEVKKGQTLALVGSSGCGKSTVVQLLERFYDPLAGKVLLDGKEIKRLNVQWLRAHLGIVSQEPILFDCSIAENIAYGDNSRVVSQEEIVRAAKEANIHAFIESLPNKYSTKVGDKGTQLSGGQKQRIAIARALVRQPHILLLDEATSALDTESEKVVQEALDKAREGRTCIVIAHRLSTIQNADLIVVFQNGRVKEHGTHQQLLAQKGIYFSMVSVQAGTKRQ
Chain of Cytochrome P450 3A4 (P08684 whole entry): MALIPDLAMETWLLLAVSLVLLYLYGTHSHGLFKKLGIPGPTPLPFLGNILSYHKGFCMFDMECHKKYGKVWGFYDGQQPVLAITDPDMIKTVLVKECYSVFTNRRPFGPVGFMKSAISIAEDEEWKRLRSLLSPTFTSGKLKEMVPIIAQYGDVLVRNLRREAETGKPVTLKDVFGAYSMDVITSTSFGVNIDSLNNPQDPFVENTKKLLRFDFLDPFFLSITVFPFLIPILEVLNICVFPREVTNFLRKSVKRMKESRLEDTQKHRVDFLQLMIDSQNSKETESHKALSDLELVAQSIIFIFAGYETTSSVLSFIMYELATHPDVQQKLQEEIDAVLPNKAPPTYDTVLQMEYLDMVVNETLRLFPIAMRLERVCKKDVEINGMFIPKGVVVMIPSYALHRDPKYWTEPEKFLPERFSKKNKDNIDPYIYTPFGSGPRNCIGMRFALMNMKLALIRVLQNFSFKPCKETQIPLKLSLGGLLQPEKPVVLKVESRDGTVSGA

Take `COc1cc2c(c3c1OCO3)-c1c(cc(OC)c3c1OCO3)CN(CCc1ccc3c(c1)OCO3)C2`: the “Ratio IC50” value stood at 20.58 with K562/A02 [1] and 12.78 in the data set on K562/A02 [2]. In addition, the EC50 with K562/A02 [3] stood at 0.122 µM.
On to `COc1ccc2c(c1)CCN(CCN1Cc3cc(OC)c4c(c3-c3c(cc(OC)c5c3OCO5)C1)OCO4)C2`, for which the IC50 with K562/A02 [4] worked out at 5.1 µM. For the same compound, in the data set on K562/A02 [2], the “Ratio IC50” value was 4.87.
Regarding `COc1ccc2c(c1)CCN(CCCCCCN1Cc3cc(OC)c4c(c3-c3c(cc(OC)c5c3OCO5)C1)OCO4)C2`, the IC50 in the data set with K562/A02 [4] is more than 100 µM. The “Ratio IC50” value in the data set on K562/A02 [1] is given as 4.23.
As for `COc1cc2c(c3c1OCO3)-c1c(cc(OC)c3c1OCO3)CN(c1ccc(CCN3CCNCC3)cc1)C2`, in the data set on K562/A02 [4], the IC50 was 4.63 µM. Besides, in the data set on K562/A02 [2], the “Ratio IC50” value was 14.23.
Consider `COc1cc2c(cc1OC)CN(CCc1ccc(N3Cc4cc(OC)c5c(c4-c4c(cc(OC)c6c4OCO6)C3)OCO5)cc1)CC2`, for which the result with K562 [5] and in the data set on K562/A02 [7] was Active. Further, the IC50 was found to be 2.61 µM against Cytochrome P450 3A4 and 95.4 µM with K562/A02 [4]. In addition, the Activity result in the data set on K562/A02 [6] is “Dose-Dependent Effect”; with K562/A02 [8], 158.27 mm3; in data set [9], “Active”; in the data set with K562/A02 [10], 525.75 mm3. Also, the “Ratio IC50” value in the data set with K562/A02 [1] and in the data set with K562/A02 [2] was 93.17 in each case. Besides, the 50% effective concentration (EC50) in the data set with K562/A02 [3] turned out to be 0.0487 µM. Further, the result in the data set on K562/A02 [11] was inactive.
In the case of `COc1cc2c(c3c1OCO3)-c1c(cc(OC)c3c1OCO3)CN(c1ccc(CCN3CCCCC3)cc1)C2`, the IC50 in the data set on K562/A02 [4] was determined as 3.21 µM. Also, the “Ratio IC50” value in the data set with K562/A02 [2] was determined as 12.52.
Take `COc1cc2c(cc1OC)CN(CCCCCCN1Cc3cc(OC)c4c(c3-c3c(cc(OC)c5c3OCO5)C1)OCO4)CC2`: the IC50 in the data set with K562/A02 [4] amounted to 2.04 µM. Further, the “Ratio IC50” value in the data set with K562/A02 [2] is recorded as 8.24.
`COc1cc2c(cc1OC)CN(CCc1ccccc1N1Cc3cc(OC)c4c(c3-c3c(cc(OC)c5c3OCO5)C1)OCO4)CC2`: in the data set on K562/A02 [4], the IC50 was more than 100 µM. In addition, the “Ratio IC50” value in the data set on K562/A02 [1] is on record as 0.85.
Take `COc1cc2c(c3c1OCO3)-c1c(cc(OC)c3c1OCO3)CN(c1ccc(CN3CCCCC3)cc1)C2`: the IC50 in the data set on K562/A02 [4] was 19.3 µM. Moreover, the “Ratio IC50” value in the data set on K562/A02 [1] worked out at 113.14; in the data set on K562/A02 [2], 21.82.
Turning to `COc1ccc(C(=O)Nc2ccccc2C(=O)Nc2ccc(CCN3CCc4cc(OC)c(OC)cc4C3)cc2)cc1OC`, the IC50 in the data set with K562/A02 [4] was determined as 9.08 µM. Also, the “Ratio IC50” value in the data set on K562/A02 [1] turned out to be 81.9. The EC50 in the data set with K562/A02 [3] worked out at 0.0303 µM.
On to `COc1cc2c(cc1OC)CN(CCCN1Cc3cc(OC)c4c(c3-c3c(cc(OC)c5c3OCO5)C1)OCO4)CC2`, for which the IC50 with K562/A02 [4] is 16.6 µM. Further, the “Ratio IC50” value in the data set with K562/A02 [1] was found to be 2.01.
Take `COc1cc2c(c3c1OCO3)-c1c(cc(OC)c3c1OCO3)CN(c1ccc(CCN3CCOCC3)cc1)C2`: the IC50 with K562/A02 [4] was found to be 6.57 µM. Further, the “Ratio IC50” value in the data set with K562/A02 [1] came out at 16.7.
Consider `COc1cc2c(cc1OC)CN(Cc1ccc(N3Cc4cc(OC)c5c(c4-c4c(cc(OC)c6c4OCO6)C3)OCO5)cc1)CC2`, for which the concentration for half-maximal inhibition (IC50) in the data set with K562/A02 [4] was 13.6 µM. The “Ratio IC50” value is 374.09 in the data set on K562/A02 [1] and 46.82 in the data set on K562/A02 [2].
For the compound `COc1cc2c(cc1OC)CN(CCN1Cc3cc(OC)c4c(c3-c3c(cc(OC)c5c3OCO5)C1)OCO4)CC2`, the half-inhibitory concentration (IC50) in the data set with K562/A02 [4] was found to be 7.78 µM. For the same compound, the “Ratio IC50” value in the data set with K562/A02 [1] is 4.29.
Turning to `COc1ccc2c(c1)CCN(CCc1ccc(N3Cc4cc(OC)c5c(c4-c4c(cc(OC)c6c4OCO6)C3)OCO5)cc1)C2`, in the data set with K562/A02 [4], the IC50 was more than 100 µM. Further, the “Ratio IC50” value in the data set with K562/A02 [1] stood at 8.61.
As for `COc1cccc2c1C(=O)c1c(O)c3c(c(O)c1C2=O)C[C@@](O)(C(=O)CO)C[C@@H]3O[C@H]1C[C@H](N)[C@H](O)[C@H](C)O1.Cl` [DOXORUBICIN HYDROCHLORIDE], the IC50 in the data set with K562 [12] worked out at 0.001 µM; in the data set on K562/A02 [4], 2.4 µM. The Activity in the data set on K562/A02 [13] is 526.45 mm3.
As to `COc1ccc2c(c1)CCN(CCCN1Cc3cc(OC)c4c(c3-c3c(cc(OC)c5c3OCO5)C1)OCO4)C2`, the IC50 in the data set with K562/A02 [4] came to 5.31 µM. In the data set with K562/A02 [2], the “Ratio IC50” value was determined as 1.67.
